Measurements taken from patent US20100298141A1, “SUBSTITUTED PYRIDINE N-OXIDE HERBICIDES” (E. I. DU PONT DE NEMOURS AND COMPANY, priority 2007, published 2010).

Tests used:
common ragweed = experiment: Test C pre-/postemergence test; type: in vivo, Ambrosia elation; details: for Plant response rating (0 to 100), Ragweed / Plant response rating, Ragweed: Postemergence; for Plant response rating, Ragweed: scale 0 to 100, 0 no effect, 100 complete control
Outline: (§1)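 Compounds in a non-phytotoxic solvent with surfactant applied preemergence to seeded pots and, at the same time, postemergence to plants 2–18 cm tall (1- to 4-leaf stage). Paddy tests: pots flooded to 3 cm, compound applied into the water, depth held throughout.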

corn = experiment: Test A pre-/postemergence greenhouse test; type: in vivo, Zea mays; details: for Plant response rating, Corn: 0 to 100 scale where 0 is no effect and 100 is complete control; for Corn plant response rating: 0 to 100 scale
Outline: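 Greenhouse herbicide screen, pre- and postemergence in parallel. Soil: loam plus sand. Formulation: non-phytotoxic solvent mix with surfactant. Postemergence stage: one to two leaves, 2–10 cm height. Evaluation: visual injury, compared with untreated controls, about 10 days after treatment.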

green foxtail = experiment: Test C pre-/postemergence test; type: in vivo, Setaria viridis
Outline: as §1

mustard = experiment: Test F preemergence test; type: in vivo, Brassica nigra; details: scale 0 to 100
Text: (§2) Seeds of plant species selected from bermudagrass (Cynodon dactylon), Surinam grass (Brachiaria decumbens), large crabgrass (Digitaria sanguinalis), green foxtail (Setaria viridis), goosegrass (Eleusine indica), johnsongrass (Sorghum halepense), kochia (Kochia scoparia), pitted morningglory (Ipomoea lacunosa), purple nutsedge (Cyperus rotundus), common ragweed (Ambrosia elation), mustard (Brassica nigra), guineagrass (Panicum maximum), […] (Paspalum dilatatum), barnyardgrass (Echinochloa crus-galli), southern sandbur (Cenchrus echinatus), common sowthistle (Sonchus oleraceous), prickly […] spinosa), Italian ryegrass (Lolium multiflorum), common purslane (Portulaca oleracea), broadleaf signalgrass (Brachiaria platyphylla), common groundsel (Senecio vulgaris), common chickweed (Stellaria media), Virginia dayflower (Commelina virginica), annual bluegrass (Poa annua), naked crabgrass (Digitaria nuda), […] cochinchinensis), quackgrass (Elytrigia repens), Canada horseweed (Conyza canadensis), field bindweed (Convolvulus arvensis), […] (Bidens bipinnata), common mallow (Malva sylvestris), Russian thistle (Salsola kali), and sugarcane (Saccharum officinarum) were planted and treated preemergence with test chemicals formulated in a non-phytotoxic solvent mixture which included a surfactant. At a different time, sugarcane was treated with postemergence applications of some of the test chemicals formulated in the same manner. Plants were approximately 3- to 4-leaf stage for the postemergence treatments. Treated plants and controls were maintained in a greenhouse for 14 to 21 days, after which time all species were compared to controls and visually evaluated. […] A dash (-) response means no test result.

bermudagrass = experiment: Test F preemergence test; type: in vivo, Cynodon dactylon; details: scale 0 to 100
Text: as §2

prickly sida = experiment: Test F preemergence test; type: in vivo, Sida spinosa; details: scale 0 to 100
Text: as §2

Virginia dayflower = experiment: Test F preemergence test; type: in vivo, Commelina virginica; details: scale 0 to 100
Text: as §2

broadleaf signalgrass = experiment: Test F preemergence test; type: in vivo, Brachiaria platyphylla; details: scale 0 to 100
Text: as §2

blackgrass = experiment: Test C pre-/postemergence test; type: in vivo, Alopecurus myosuroides
Outline: as §1

dallisgrass = experiment: Test F preemergence test; type: in vivo, Paspalum dilatatum; details: scale 0 to 100
Text: as §2

quackgrass = experiment: Test F preemergence test; type: in vivo, Elytrigia repens; details: scale 0 to 100
Text: as §2

kochia = experiment: Test F preemergence test; type: in vivo, Kochia scoparia; details: scale 0 to 100
Text: as §2

Surinam grass = experiment: Test F preemergence test; type: in vivo, Brachiaria decumbens; details: scale 0 to 100
Text: as §2

[1] = 62 g ai/ha, Preemergence, scale 0 to 100
[2] = 125 g ai/ha, preemergence, scale 0 (no effect) to 100 (complete control)
[3] = preemergence, 250 g ai/ha, scale 0 (no effect) to 100 (complete control)
[4] = Postemergence, 125 g ai/ha, scale 0 to 100, 0 no effect, 100 complete control
[5] = Postemergence, 250 g ai/ha, scale 0 to 100, 0 no effect, 100 complete control
[6] = Preemergence, 31 g ai/ha, scale 0 to 100 (0 no effect, 100 complete control)

CC(Oc1c(CS(=O)(=O)c2cccc[n+]2[O-])c(C(F)(F)F)nn1C)C(F)(F)F (stereo not shown) [Compound 82]
70: Plant response rating, Quackgrass (quackgrass; 16 g ai/ha, preemergence) | Plant response rating, Quackgrass (quackgrass; Preemergence, 31 g ai/ha)
90: Plant response rating, Bermudagrass (bermudagrass; Preemergence, 62 g ai/ha) | Plant response rating, Dayflower (Virginia dayflower; Preemergence, 62 g ai/ha) | Plant response rating, Blackgrass (blackgrass; [4]) | Dallisgrass plant response rating (dallisgrass; 125 g ai/ha, preemergence) | Plant response rating, Surinam Grass (Surinam grass; Preemergence, 62 g ai/ha)
35: Plant response rating, Ragweed (common ragweed; 125 g ai/ha)
20: Corn plant response rating (corn; Postemergence, 500 g ai/ha, 0 is no effect, 100 is complete control) | Plant response rating, Dallisgrass (dallisgrass; 16 g ai/ha, preemergence) | Plant response rating, Dallisgrass (dallisgrass; Preemergence, 31 g ai/ha)
0: Ragweed plant response rating (common ragweed; [1]) | Plant response rating (0 to 100), Ragweed (common ragweed; 31 g ai/ha) | Plant response rating, Corn (corn; Postemergence, 125 g ai/ha) | Corn plant response rating (corn; Preemergence, 125 g ai/ha, 0 no effect, 100 complete control) | Plant response rating (0 to 100), Foxtail, Green (green foxtail; Postemergence, 31 g ai/ha) | Plant response rating, Black Mustard (mustard; 16 g ai/ha, preemergence) | Plant response rating, Black Mustard (mustard; Preemergence, 31 g ai/ha) | Plant response rating, Bermudagrass (bermudagrass; 16 g ai/ha, preemergence) | Plant response rating, Prickly Sida (prickly sida; 16 g ai/ha, preemergence) | Plant response rating, Prickly Sida (prickly sida; Preemergence, 31 g ai/ha) | Plant response rating (0 to 100), Blackgrass (blackgrass; Postemergence, 31 g ai/ha) | Plant response rating, Surinam Grass (Surinam grass; 16 g ai/ha, preemergence)
40: Plant response rating (0 to 100), Foxtail, Green (green foxtail; Postemergence, 62 g ai/ha) | Plant response rating, Dallisgrass (dallisgrass; Preemergence, 62 g ai/ha)
80: Plant response rating, Foxtail, Green (green foxtail; [5]) | Plant response rating, Bermudagrass (bermudagrass; Preemergence, 31 g ai/ha)
98: Foxtail, Green plant response rating (green foxtail; [2])
75: Prickly Sida plant response rating (prickly sida; 125 g ai/ha, preemergence)
15: Plant response rating, Prickly Sida (prickly sida; Preemergence, 62 g ai/ha)
95: Foxtail, Green plant response rating (green foxtail; [1]) | Plant response rating, Foxtail, Green (green foxtail; [6]) | Plant response rating, Blackgrass (blackgrass; [5]) | Plant response rating, Quackgrass (quackgrass; Preemergence, 62 g ai/ha)
30: Plant response rating (0 to 100), Ragweed (common ragweed; 62 g ai/ha) | Plant response rating, Surinam Grass (Surinam grass; Preemergence, 31 g ai/ha)
60: Plant response rating, Foxtail, Green (green foxtail; [4]) | Plant response rating (0 to 100), Blackgrass (blackgrass; Postemergence, 62 g ai/ha)
100: Ragweed plant response rating (common ragweed; [2]) | Ragweed plant response rating (common ragweed; [3]) | Foxtail, Green plant response rating (green foxtail; [3]) | Black Mustard plant response rating (mustard; 125 g ai/ha, preemergence) | Bermudagrass plant response rating (bermudagrass; 125 g ai/ha, preemergence) | Dayflower plant response rating (Virginia dayflower; 125 g ai/ha, preemergence) | Signalgrass plant response rating (broadleaf signalgrass; 125 g ai/ha, preemergence) | Plant response rating, Signalgrass (broadleaf signalgrass; Preemergence, 62 g ai/ha) | Blackgrass plant response rating (blackgrass; [1]) | Blackgrass plant response rating (blackgrass; [2]) | Plant response rating, Blackgrass (blackgrass; [6]) | Blackgrass plant response rating (blackgrass; [3]) | Quackgrass plant response rating (quackgrass; 125 g ai/ha, preemergence) | Plant response rating, Kochia (kochia; 16 g ai/ha, preemergence) | Kochia plant response rating (kochia; 125 g ai/ha, preemergence) | Plant response rating, Kochia (kochia; Preemergence, 62 g ai/ha) | Plant response rating, Kochia (kochia; Preemergence, 31 g ai/ha) | Surinam Grass plant response rating (Surinam grass; 125 g ai/ha, preemergence)
50: Plant response rating, Ragweed (common ragweed; 250 g ai/ha) | Plant response rating, Corn (corn; Preemergence, 500 g ai/ha) | Plant response rating, Black Mustard (mustard; Preemergence, 62 g ai/ha) | Plant response rating, Signalgrass (broadleaf signalgrass; 16 g ai/ha, preemergence) | Plant response rating, Signalgrass (broadleaf signalgrass; Preemergence, 31 g ai/ha)
